Conditions: for log10 BCF / log10 biotransformation half-life (days): fish

Structure (SMILES) | boiling point | melting point | other results
COC(=O)C1=CCCN(C)C1 | 209 °C | – | log10 vapour pressure (mmHg): -1.1
CCC(C#N)CC | 146 °C | – | –
Oc1ccc(Cl)cc1Sc1cc(Cl)ccc1O | – | 174 °C | –
C=C(C)CC(C)C | 81.6 °C | -124 °C | log10 vapour pressure (mmHg): 1.98
CCOC(=O)CNc1nc(Cl)nc(NC(C)C)n1 | – | 110 °C | –
FC(F)(Cl)C(F)(Cl)C(F)(F)Cl | 73.7 °C | -72 °C | –
c1ccc(NNc2ccccc2)cc1 | 309 °C | 131 °C | log10 Koc (L/kg): 2.98; log10 vapour pressure (mmHg): -3.36
CCCOc1ccc(C(=O)O)cc1 | – | 145 °C | –
CC1=C(O)C(=O)CC1 | – | 106 °C | –
CCCCCCCC1CCCC(=O)O1 (configuration not stated) | – | -12 °C | –
CC(C)CCCC(C)(C)C | 149 °C | -105 °C | –
CN(C)c1ccc(C2(c3ccc(N(C)C)cc3)OC(=O)c3cc(N(C)C)ccc32)cc1 | – | – | ready biodegradability: not readily biodegradable
Nc1nc(=O)[nH]cc1F | – | 296 °C | –
CCC(C)CCC(C)(C)C (configuration not stated) | 151 °C | – | –
C=C(Cl)Cl | 31.6 °C | -122 °C | log10 Henry constant (atm·m³/mol): -1.58; log10 Koc (L/kg): 1.81; log10 vapour pressure (mmHg): 2.78; ready biodegradability: not readily biodegradable; log10 BCF: 1.11; log10 biotransformation half-life (days): -0.72
O=C(O)c1ccc2ccccc2n1 | – | 156 °C | ready biodegradability: readily biodegradable
ClC(Cl)=C(Cl)Cl | 121 °C | -22.3 °C | log10 Henry constant (atm·m³/mol): -1.75; log10 Koa: 3.48; log10 Koc (L/kg): 2.4; log10 vapour pressure (mmHg): 1.27; ready biodegradability: not readily biodegradable; log10 BCF: 1.72; log10 biotransformation half-life (days): -0.88
Cc1cccc2[nH]ccc12 | 267 °C | 5 °C | –
CCCCCC(=O)O | 205 °C | -3 °C | log10 Henry constant (atm·m³/mol): -6.12; log10 Koc (L/kg): 1.46; log10 vapour pressure (mmHg): -1.36; ready biodegradability: readily biodegradable
CCCCC(C)C | 90 °C | -118 °C | log10 biodegradation half-life (days): 0.477; log10 vapour pressure (mmHg): 1.82
Cc1cccc(O)c1 | 202 °C | 11.8 °C | log10 Henry constant (atm·m³/mol): -6.07; log10 vapour pressure (mmHg): -0.959; ready biodegradability: readily biodegradable

Structure (SMILES) | boiling point | melting point | other results
Fc1ccccc1C(F)(F)F | 114 °C | – | log10 vapour pressure (mmHg): 1.58
Cc1c(N)cc([N+](=O)[O-])cc1[N+](=O)[O-] | – | 174 °C | –
CCOC(=O)C(F)(F)C(F)(F)F | – | 75.5 °C | –
FC(F)(F)c1nc2ccccc2[nH]1 | – | 210 °C | –
CNNC | 81 °C | -9 °C | log10 vapour pressure (mmHg): 1.84
CCC1=CCCCC1 | 137 °C | -110 °C | –
O=c1c(O)c(-c2ccc(O)c(O)c2)oc2cc(O)cc(O)c12 | – | 316 °C | –
NC(=O)c1cnccn1 | – | 192 °C | –
C=CCCCCCCCCCCCCCCCC | – | 17.5 °C | log10 vapour pressure (mmHg): -4.17
Nc1ccc(Cl)cc1C(=O)c1ccccc1 | – | 99 °C | –
c1ccc(-c2cnc(-c3ccccc3)o2)cc1 | 360 °C | 74 °C | –
CCCC(=O)N(CSP(=S)(OC)OC)c1ccccc1Cl | – | 42 °C | –
CC(CC(=O)O)C(=O)O (configuration not stated) | – | 118 °C | –
CC(=O)c1ccc(Cl)cc1 | 232 °C | 20 °C | –
OCC(CO)(CBr)CBr | – | 113 °C | ready biodegradability: not readily biodegradable; log10 BCF: 0.68; log10 biotransformation half-life (days): -1.4
O=C(O)CCC(=O)c1ccc2c(c1)-c1cccc3cccc-2c13 | – | 208 °C | –
O=C(Nc1ccccc1Cl)c1ccccc1 | – | 99 °C | –
N#CCCN(CCOC(=O)c1ccccc1)c1ccc(N=Nc2ccc([N+](=O)[O-])cc2)cc1 | – | – | ready biodegradability: not readily biodegradable
C=C1CC[C@H]2O[C@]2(C)CC[C@@H]2[C@@H]1CC2(C)C | – | 62.5 °C | –
O=C[C@H](O)CO | – | 145 °C | –
CCCCCCCCCCOC(=O)CCCCCCCCC | – | 9.7 °C | –

Structure (SMILES) | boiling point | melting point | other results
CC(C)C1(C)N=C(c2ncccc2C(=O)O)NC1=O (configuration not stated) | – | 171 °C | log10 Koc (L/kg): 2
CC12CCC(CC1)C2(C)C | 161 °C | 158 °C | –
NCCOB(c1ccccc1)c1ccccc1 | – | 193 °C | –
O=S(=O)(Cl)C(Cl)(Cl)Cl | 170 °C | 140 °C | –
Oc1ccccc1C(F)(F)F | 148 °C | 45.5 °C | –
Nc1cnn(-c2ccccc2)c(=O)c1Cl | – | 205 °C | log10 Koc (L/kg): 2.08; log10 vapour pressure (mmHg): -6.35
NC(=O)C1(N2C(=O)c3cccc(Cl)c3C2=O)CCCCC1 | – | 194 °C | –
ICCCCCCI | – | 9.5 °C | –
CCOc1ccc(Cc2nccc3cc(OCC)c(OCC)cc23)cc1OCC | – | 100 °C | –
CC(C)Nc1nc(Cl)nc(NC(C)C)n1 | – | 213 °C | log10 Koc (L/kg): 2.4; log10 vapour pressure (mmHg): -6.88; ready biodegradability: not readily biodegradable
CC/C=C\CC=O | 121 °C | – | –
CC1(C)O[C@@H]2C[C@H]3[C@@H]4CCC5=CC(=O)C=C[C@]5(C)[C@H]4[C@@H](O)C[C@]3(C)[C@]2(C(=O)CO)O1 | – | 274 °C | –
CC(=O)S[C@H]1CC(=O)C=C2C[C@@H](SC(C)=O)[C@@H]3[C@H](CC[C@@]4(C)[C@H]3CC[C@]4(C)O)[C@]21C | – | 206 °C | –
CC(C=O)=Cc1ccccc1 | 252 °C | – | log10 vapour pressure (mmHg): -1.82
COc1cc2c(c(OC)c1OC)-c1ccc(SC)c(=O)cc1[C@@H](NC(C)=O)CC2 | – | 193 °C | –
C[Si]1(C)N[Si](C)(C)N[Si](C)(C)N[Si](C)(C)N1 | 225 °C | 97.5 °C | –
Brc1cccc2c1Oc1ccccc1O2 | – | 104 °C | log10 vapour pressure (mmHg): -4.58
SC(c1ccccc1)(c1ccccc1)c1ccccc1 | – | 105 °C | –
Brc1cc(Br)c(Br)c(Br)c1 | 329 °C | 99.5 °C | –
CN(O)CCO | – | – | ready biodegradability: readily biodegradable

Reference: the OPERA property sets (Mansouri et al. 2018)
